Results taken from patent US20260297042A1, “BIARYLAMIDE DERIVATIVES AND THEIR USE AS PKMYT1 INHIBITORS” (CANCER RESEARCH TECHNOLOGY LIMITED, priority 2023, published 2026).
Each block holds one compound with its values, some of them ahead of it.

Experiments:
[1] = system: h-TERT-RPE1 TP53−/− parental cells; test: Nuclear count cell proliferation assay, parental (wild type) h-TERT-RPE1 TP53−/− cells; type: cell-based; conditions: hTERT-RPE1, h-TERT-RPE1 TP53−/− parental (Wt), around 6 population doublings, banded, read-out: RPE Wt GI50
Experimental: (§1) h-TERT-RPE1 TP53−/− and CCNE1 high expressing clones (clone cell lines 7 and 15) were treated with test compounds dissolved in DMSO at serially diluted concentrations alongside a DMSO only control for around 6 population doublings time. Cells were then fixed with 4% Paraformaldehyde and the cell nuclei were stained with DAPI (Sigma D9542). Images covering each well were acquired by an Opera Phenix® High-Content Screening System (PerkinElmer). Image analysis was performed using Harmony® high-content analysis software (PerkinElmer). Data analysis was performed using Microsoft Excel® and GI50 estimates generated with GraphPad Prism v9. Percent nuclear count was compared to vehicle control wells and used to measure inhibition of proliferation.

[2] = system: h-TERT-RPE1 TP53−/− CCNE1 high expressing clone cell line 7 (CL7); test: Nuclear count cell proliferation assay, CCNE1 high expressing clone cell line 7 (CL7) of h-TERT-RPE1 TP53−/−; type: cell-based; conditions: banded
Experimental: as §1

OVCAR3 cells = test: Cancer cell line proliferation assay, nuclear count, OVCAR3 (CCNE1-amplified); type: cell-based; conditions: banded
Experimental: as §1
(§2) Cancer cell lines with either normal (KYSE-30) or amplified CCNE1 expression (OVCAR3-ovarian cancer) were evaluated for their sensitivity to PKMYT1 inhibitors in a nuclear count assay as described above for h-TERT-RPE1 TP53−/− and a CCNE1 high expressing clones, taking into account the slower cell cycle division times of these lines.

KYSE-30 cells = test: Cancer cell line proliferation assay, nuclear count, KYSE-30 (normal CCNE1); type: cell-based; conditions: Homo sapiens, normal CCNE1 expression, banded, read-out: KYSE30 GI50
Experimental: as §1, §2

Human PKMYT1 = biological target: T1, Human PKMYT1 (Homo sapiens, UniProt Q99640); test: PKMYT1 biochemical ADP-Glo enzymatic assay; conditions: ADP-Glo; 15 nM PKMYT1 kinase domain, 500 µM ATP, 60 minutes at 26° C.; banded
T1 construct: Human PKMYT1 75-362 was cloned as a TEV cleavable 6xHis fusion; 6xHis (TEV cleavable) (cleaved yes); made in house; host or cells: bacterial cells
T1 sequence (Q99640 75-362): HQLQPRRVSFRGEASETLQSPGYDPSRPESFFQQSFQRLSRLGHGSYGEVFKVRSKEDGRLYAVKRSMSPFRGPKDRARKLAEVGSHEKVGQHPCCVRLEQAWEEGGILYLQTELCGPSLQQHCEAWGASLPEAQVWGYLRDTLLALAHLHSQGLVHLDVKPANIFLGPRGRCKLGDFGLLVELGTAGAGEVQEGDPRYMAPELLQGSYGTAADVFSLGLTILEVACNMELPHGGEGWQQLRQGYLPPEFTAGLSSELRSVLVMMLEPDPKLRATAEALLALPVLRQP
Summary of the method: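 Purified untagged human PKMYT1 75-362 at 15 nM final was tested in HEPES pH 7.5 with MgCl2, EGTA, Brij-35 and 1% DMSO. Intrinsic ATPase activity was measured with 500 uM ATP over 60 min at 26° C. ADP-Glo luminescence was read and IC50 fitted from 10-point, 3-fold dilution curves.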

[3] = system: h-TERT-RPE1 TP53−/− CCNE1 high expressing clone cell line 15 (CL15); test: Nuclear count cell proliferation assay, CCNE1 high expressing clone cell line 15 (CL15) of h-TERT-RPE1 TP53−/−; type: cell-based; conditions: banded
Experimental: as §1

WEE1 = biological target: T2, WEE1 (Homo sapiens, UniProt P30291); test: Selectivity versus WEE1 assay (ADP-Glo enzymatic assay); type: biochemical; conditions: banded
T2 construct: purchased Thermo Fisher PR7373A
Summary of the method: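 WEE1 at 15 nM final in 50 mM HEPES pH 7.5, 10 mM MgCl2, 1 mM EGTA, 0.01% Brij-35, 1% DMSO; reaction started with 30 µM ATP, 60 min at 26 °C. ADP-Glo luminescence; IC50 from dose-response curves, replicates within 3-fold and r2 >0.9.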

[4] = system: pancreatic PDX model with increased expression of CCNE1; conditions: alone or in combination with Gemcitabine; Gallo et al., 2022; cited from earlier work
[5] = system: breast and ovarian cancers overexpressing CCNE1; conditions: alone or in combination with Gemcitabine; Gallo et al., 2022; cited from earlier work
solid tumours = conditions: clinicaltrials.gov; cited from earlier work

T2 sequence (P30291 whole entry): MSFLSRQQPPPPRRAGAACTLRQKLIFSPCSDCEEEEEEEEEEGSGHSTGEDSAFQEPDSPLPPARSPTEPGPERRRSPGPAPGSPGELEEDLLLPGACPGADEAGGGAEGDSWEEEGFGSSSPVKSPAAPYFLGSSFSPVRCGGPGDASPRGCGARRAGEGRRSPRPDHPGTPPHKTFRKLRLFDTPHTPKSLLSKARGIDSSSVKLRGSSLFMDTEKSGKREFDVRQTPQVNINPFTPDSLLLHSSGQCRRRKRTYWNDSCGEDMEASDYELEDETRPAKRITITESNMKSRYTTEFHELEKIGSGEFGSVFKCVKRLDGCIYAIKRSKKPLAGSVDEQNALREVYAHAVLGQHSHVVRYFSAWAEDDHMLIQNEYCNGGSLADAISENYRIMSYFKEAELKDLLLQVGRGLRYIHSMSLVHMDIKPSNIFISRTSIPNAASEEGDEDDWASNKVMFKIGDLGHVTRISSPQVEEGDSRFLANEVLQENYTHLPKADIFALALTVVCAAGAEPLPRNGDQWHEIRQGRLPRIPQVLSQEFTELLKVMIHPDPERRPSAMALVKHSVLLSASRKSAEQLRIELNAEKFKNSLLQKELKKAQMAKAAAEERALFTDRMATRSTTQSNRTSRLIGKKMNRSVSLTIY

GI50 (OVCAR3 cells; Homo sapiens, OVCAR-3, CCNE1-amplified ovarian cancer, nuclear count): 3000 to 10000 nM | IC50 (Human PKMYT1): < 50 nM | IC50 (WEE1; ADP-Glo, 15 nM WEE1, 60 minutes at 26° C.): > 11000 nM | PKMYT1 vs. WEE1 selectivity (WEE1; fold difference in selectivity for PKMYT1 over WEE1, ">N" = at least in this band but could be higher): Y (1000-5000 fold)
Structure (SMILES): Cc1ccc(O)c(C)c1NC(=O)c1cnc(Nc2ccn(CC(=O)N3CC(F)(F)C(F)(F)C3)n2)s1 [BAA-181, N-(3-hydroxy-2,6-dimethyl-phenyl)-2-[[1-[2-oxo-2-(3,3,4,4-tetrafluoropyrrolidin-1-yl)ethyl]pyrazol-3-yl]amino]thiazole-5-carboxamide]
GI50 [1]: 500 to 3000 nM | Selectivity Ratio Wt vs. CL7 ([2]; GI50 ratio RPE Wt vs. CL7, >N = at least in this band): X (3-<10 fold) | GI50 ([2]; hTERT-RPE1, h-TERT-RPE1 TP53−/− CCNE1 high clone CL7, nuclear count, around 6 population doublings, read-out: RPE CL7 GI50): < 500 nM | Selectivity ratio KYSE30 GI50 vs. OVCAR3 GI50 (OVCAR3 cells; GI50 ratio KYSE30 vs. OVCAR3, >N = at least in this band): >X (3-<10 fold) | GI50 (KYSE-30 cells): > 10000 nM | Selectivity Ratio Wt vs. CL15 ([3]; GI50 ratio RPE Wt vs. CL15, >N = at least in this band): Y (10-30 fold) | GI50 ([3]; h-TERT-RPE1 TP53−/− CCNE1 high clone CL15, nuclear count, around 6 population doublings, read-out: RPE CL15 GI50): < 500 nM

Structure (SMILES): Cc1cc2c(C(N)=O)c(N)n(-c3c(C)ccc(O)c3C)c2nc1C [RP-6306]
efficacy in vivo [4]: has shown efficacy in vivo | efficacy in vivo [5]: has shown efficacy in vivo

Structure (SMILES): C=CCn1c(=O)c2cnc(Nc3ccc(N4CCN(C)CC4)cc3)nc2n1-c1cccc(C(C)(C)O)n1 [adavosertib]
toxicity in clinical trials (solid tumours): presented significant toxicity
